Measurements as given in PMC6017193, “Structure-Based Discovery of a Series of 5H-Pyrrolo[2,3-b]pyrazine FGFR Kinase Inhibitors” (Molecules : A Journal of Synthetic Chemistry and Natural …, 2018).

Tests used:
FGFR1 = target: T1, FGFR1 (Homo sapiens, UniProt P11362); assay: ELISA kinase assay, FGFR1 enzymatic activity; type: biochemical; conditions: for inhibition at 0.01 µM: 0.01 μM (10 nM); for inhibition at 0.01 µM / inhibition at 0.1 µM / inhibition at 1 µM: mean of two separate experiments; for IC50: mean ± SD from two separate experiments
T1 construct: purchased Millipore
Protocol: The effects of compounds on the activities of indicated (FGFR1 and c-Met) kinases were determined using enzyme-linked immunosorbent assays (ELISAs) with purified recombinant proteins. Briefly, 20 μg/mL poly (Glu, Tyr)4:1 (Sigma, St. Louis, MO, USA) was precoated in 96-well plates as a substrate. A 50-μL aliquot of 10 μmol/L ATP solution diluted in kinase reaction buffer (50 mmol/L HEPES (pH 7.4), 50 mmol/L MgCl2, 0.5 mmol/L MnCl2, 0.2 mmol/L Na3VO4, and 1 mmol/L DTT) was added to each well; 1 μL of various concentrations of compounds diluted in 1% DMSO (v/v) (Sigma) were then added to each reaction well. DMSO (1%, v/v) was used as the negative control. The kinase reaction was initiated by the addition of purified tyrosine kinase proteins FGFR1 (Millipore, Darmstadt, Germany) or c-Met (Millipore) diluted in 49 μL of kinase reaction buffer. After incubation for 60 min at 37 °C, the plate was washed three times with phosphate-buffered saline (PBS) containing 0.1% Tween 20 (T-PBS). Anti-phosphotyrosine (PY99) antibody (Sanra Cruz, Dallas, TX, USA) (100 μL; 1:500, diluted in 5 mg/mL bovine serum albumin (BSA) T-PBS) was then added. After a 30-min incubation at 37 °C, the plate was washed three times, and 100 μL of horseradish peroxidase-conjugated goat anti-mouse IgG (Calbiochem, Shanghai, China) (1:2000, diluted in 5 mg/mL BSA T-PBS) was added. The plate was then incubated at 37 °C for 30 min, and washed three times. A 100-μL aliquot of a solution containing 0.03% H2O2 and 2 mg/mL o-phenylenediamine in 0.1 mol/L citrate buffer (pH 5.5) was added. The reaction was terminated by the addition of 50 μL of 2 mol/L H2SO4 as the color changed, and the plate was analyzed using a multi-well spectrophotometer (SpectraMAX 190, Molecular Devices, Palo Alto, CA, USA) at 490 nm. The inhibition rate (%) was calculated using the following equation:IR = [1 − (A490/A490control)] × 100%.(1) where IR, A490, and A490control are the inhibition rate, the absorbance value of the tested compound at 490 nm, and the absorbance value of the negative control compound at 490 nm, respectively. The IC50 values were calculated from the inhibition curves in two separate experiments.

[1] = test system: KG1 leukemia cell line harboring FGFR1OP-FGFR1 fusion; assay: Cell proliferation assay in KG1 cells (SRB or MTT, 72 h); type: cell-based; conditions: Homo sapiens, KG-1, mean ± SD from two separate experiments, read-out: KG1 IC50 (antiproliferation activity)
Protocol: Cell proliferation was examined in a FGFR1-translocated KG1 leukemia cell line harboring FGFR1OP-FGFR1 fusion. The original KG1 cell line was purchased from ATCC (CRL-8031), and cultured according the ATCC standard protocol. Cells were seeded in 96-well tissue culture plates. On the next day, the cells were exposed to various concentrations of compounds and further cultured for 72 h. Cell proliferation was then determined using sulforhodamine B (SRB, from Sigma-Aldrich, St Louis, MO, USA) or the thiazolyl blue tetrazolium bromide (MTT, from Sigma-Aldrich, St Louis, MO, USA) assay. The IC50 values were calculated by concentration- response curve fitting using the four-parameter method.

T1 sequence (P11362 22-822): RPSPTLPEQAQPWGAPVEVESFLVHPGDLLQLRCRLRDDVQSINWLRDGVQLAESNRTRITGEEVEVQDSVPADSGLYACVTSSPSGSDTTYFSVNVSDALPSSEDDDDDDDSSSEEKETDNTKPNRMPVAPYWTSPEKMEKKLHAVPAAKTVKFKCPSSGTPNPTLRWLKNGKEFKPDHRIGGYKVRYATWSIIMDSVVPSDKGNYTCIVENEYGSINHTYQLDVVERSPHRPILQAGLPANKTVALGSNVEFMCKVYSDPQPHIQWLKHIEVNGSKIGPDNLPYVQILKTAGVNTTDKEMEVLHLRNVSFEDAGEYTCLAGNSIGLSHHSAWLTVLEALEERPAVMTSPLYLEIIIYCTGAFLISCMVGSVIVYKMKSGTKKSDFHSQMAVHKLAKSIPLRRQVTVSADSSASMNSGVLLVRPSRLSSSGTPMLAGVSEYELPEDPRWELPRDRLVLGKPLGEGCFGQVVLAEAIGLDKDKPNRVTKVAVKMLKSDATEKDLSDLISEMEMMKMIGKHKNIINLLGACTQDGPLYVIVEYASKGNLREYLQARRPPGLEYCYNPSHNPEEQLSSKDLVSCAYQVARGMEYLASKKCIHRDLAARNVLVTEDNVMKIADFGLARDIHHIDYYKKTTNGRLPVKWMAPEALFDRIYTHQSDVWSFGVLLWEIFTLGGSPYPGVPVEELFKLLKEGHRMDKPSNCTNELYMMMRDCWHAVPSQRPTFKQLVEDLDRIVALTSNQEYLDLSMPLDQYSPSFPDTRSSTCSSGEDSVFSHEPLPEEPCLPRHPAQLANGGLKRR

Cn1cnc(S(=O)(=O)n2ccc3ncc(-c4cn[nH]c4)nc32)c1 [Compound 28, 5-((1-Methyl-1H-imidazol-4-yl)sulfonyl)-3-(1H-pyrazol-4-yl)-5H-pyrrolo[2,3-b]pyrazine]
inhibition at 0.01 µM (FGFR1): 12.5%
inhibition at 0.1 µM (FGFR1): 63.2%
inhibition at 1 µM (FGFR1): 88.8%
IC50 (FGFR1): 15.4 ± 3 nM
IC50 [1]: 98.5 ± 19.1 nM

CCn1cnc(S(=O)(=O)n2ccc3ncc(-c4cn[nH]c4)nc32)c1 [Compound 29, 5-((1-ethyl-1H-imidazol-4-yl)sulfonyl)-3-(1H-pyrazol-4-yl)-5H-pyrrolo[2,3-b]pyrazine]
inhibition at 0.01 µM (FGFR1): 53.7%
inhibition at 0.1 µM (FGFR1): 79.5%
inhibition at 1 µM (FGFR1): 94.6%
IC50 (FGFR1): 3 ± 0.7 nM
IC50 [1]: 17.4 ± 8.7 nM

O=S(=O)(c1c[nH]cn1)n1ccc2ncc(-c3cn[nH]c3)nc21 [Compound 27, 5-((1H-Imidazol-4-yl)sulfonyl)-3-(1H-pyrazol-4-yl)-5H-pyrrolo[2,3-b]pyrazine]
inhibition at 0.01 µM (FGFR1): 27.9%
inhibition at 0.1 µM (FGFR1): 71.9%
inhibition at 1 µM (FGFR1): 90.7%
IC50 (FGFR1): 15.7 ± 4.8 nM
IC50 [1]: 187 ± 17.2 nM
